Values after ≈ are worked out from the molar mass of the structure shown. Like-named read-outs stand apart in the source and are kept apart here.
Legend:
[1] = system: Mycobacterium tuberculosis H37 Rv; experiment: Antibacterial activity assay (MIC, broth dilution); format: cell-based; settings: H37RV, 168 h; Mycobacterium tuberculosis H37 Rv; […]; read-out: MIC, TB
[2] = system: Bacillus anthracis Sterne 34F2; experiment: microbe, parasite or virus in culture; format: cell-based; settings: STERNE34F2, read-out: MIC, BA
[3] = system: Bacillus subtilis ATCC 23857; experiment: Antibacterial activity assay (MIC, broth dilution); format: cell-based; settings: ATCC23857; Bacillus subtilis ATCC 23857; read-out: MIC, BS
[4] = system: Streptococcus pneumoniae DAW30EC; experiment: Antibacterial activity assay (MIC, broth dilution); format: cell-based; settings: Streptococcus pneumoniae DAW30EC; read-out: MIC, SPn
[5] = system: Enterococcus faecalis ATCC 33186; experiment: Antibacterial activity assay (MIC, broth dilution); format: cell-based; settings: ATCC33186; Enterococcus faecalis ATCC 33186; read-out: MIC, EF
[6] = system: Methicillin Resistant Staphylococcus aureus ATCC 33591; experiment: Antibacterial activity assay (MIC, broth dilution); format: cell-based; settings: ATCC 33591 / MRSA, read-out: MIC, MRSA
[7] = system: Methicillin sensitive Staphylococcus aureus 8325 ATCC 35556; experiment: Antibacterial activity assay (MIC, broth dilution); format: cell-based; settings: ATCC 35556 / MSSA; Methicillin sensitive Staphylococcus aureus 8325 ATCC 35556; read-out: MIC, MSSA
[8] = system: Propionibacterium acnes ATCC 6919; experiment: Antibacterial activity assay (MIC, broth dilution); format: cell-based; settings: Cutibacterium acnes, ATCC6919; Propionibacterium acnes ATCC 6919; read-out: MIC, PA
[9] = system: Streptococcus pyogenes ATCC 700294; experiment: Antibacterial activity assay (MIC, broth dilution); format: cell-based; settings: ATCC700294; Streptococcus pyogenes ATCC 700294; read-out: MIC, SP
Cytotoxicity assay (MTT) = format: cell-based, monkey; settings: monkey; Vero cells, 72 hours, MTT; read-out: IC50 (Cytotoxicity): Concentration which reduces viability of Vero kidney cells by 50%
Procedure: (§1) Cytotoxicity assays of drugs of Formula I of Example 3 and of Formula II of Example 5 were performed using the Vero monkey kidney cell line (ATCC, CCL-81). Vero cells were grown in tissue culture flasks in Dulbecco's Modified Eagle's Medium (ATCC) supplemented with 10% fetal bovine serum and maintained in a humidified incubator (37° C., 5% CO2). Cells were removed with a cell scraper, collected by centrifugation and then suspended in fresh medium at ˜10^6 cells/mL. The cell suspensions were dispensed into 96-well microtiter plates (100 μl/well) and incubated for 18 hours at 37° C. before being used for cytotoxicity assays. Test compounds were subsequently added at concentrations ranging from 400-0.024 μg/mL and 0.1% vol/vol of Triton-X 100, which causes 100% death of cells, was included as a control. After incubating cells and compounds for 72 hours in humid air (37° C., 5% CO2) the cytopathic effects of compounds were determined using the MTT Cell Proliferation Assay (ATCC, Cat No. 30-1010K). The MTT solution reagent (10 μl) was added to each well and plates incubated at 37° C. until sufficient purple color development occurred in cells (3 hours). After detergent cell lysis, the purple formazan product was measured at 570 nm in a Synergy HT Biotek microplate reader. IC50 data was obtained from dose response curves plotted from percentage activity versus log10 concentration using Graphpad prism 5.

[10] = system: Vero monkey kidney cell line (ATCC, CCL-81); experiment: Cytotoxicity assay (MTT); format: cell-based; settings: IC50 divided by MIC against S. aureus 8325
Procedure: as §1

[11] = system: MRSA (ATCC 35391) biofilm; experiment: Calgary Biofilm Device anti-biofilm activity; format: cell-based, Staphylococcus aureus; settings: for MBC / MIC: Staphylococcus aureus; for MBC: read-out: MBEC = Minimum Biofilm Eradication Concentration; for MIC: read-out: MBIC = Minimum Biofilm Inhibitory Concentration
[12] = system: S. epidermidis (RP62A) biofilm; experiment: Calgary Biofilm Device anti-biofilm activity; format: cell-based; settings: Staphylococcus epidermidis; for MBC: read-out: MBEC = Minimum Biofilm Eradication Concentration; for MIC: read-out: MBIC = Minimum Biofilm Inhibitory Concentration
[13] = system: MSSA (ATCC 25293) biofilm; experiment: Calgary Biofilm Device anti-biofilm activity; format: cell-based; settings: Staphylococcus aureus; for MBC: read-out: MBEC = Minimum Biofilm Eradication Concentration; for MIC: read-out: MBIC = Minimum Biofilm Inhibitory Concentration
[14] = MRSA biofilm, triplicate runs listed singly
[15] = S. epidermidis biofilm, triplicate runs listed singly
[16] = MSSA biofilm, triplicate runs listed singly

Q: With `CC(C)=CCCC(C)CCN1C(=O)/C(=C(/C)O)C(=O)[C@@H]1CC(C)C` (stereo partly drawn) [Compound 13m, (5S,Z)-1-(3,7-dimethyloct-6-enyl)-3-(1-hydroxyethylidene)-5-isobutylpyrrolidine-2,4-dione] as the molecule, how does the MIC [1] read?
A: 200 µg/mL (≈ 596 µM)

Q: What about the MIC [2] of the same molecule?
A: 0.4 µg/mL (≈ 1.19 µM)

Q: What about the MIC [3] of the same molecule?
A: 0.8 µg/mL (≈ 2.38 µM)

Q: And the MIC [4]?
A: 3.25 µg/mL (≈ 9.69 µM)

Q: What about the MIC [5] of the same molecule?
A: 0.8 µg/mL (≈ 2.38 µM)

Q: And the MIC [6]?
A: 0.8 µg/mL (≈ 2.38 µM)

Q: And the MIC [7]?
A: 0.4 µg/mL (≈ 1.19 µM)

Q: What about the MIC [8] of the same molecule?
A: 0.4 µg/mL (≈ 1.19 µM)

Q: What about the MIC [9] of the same molecule?
A: 25 µg/mL (≈ 74.5 µM)

Q: What about the IC50 at 72 h (Cytotoxicity assay (MTT)) of the same molecule?
A: 7.3 µg/mL

Q: What about the “IC50/MIC = Selectivity (therapeutic) index” value [10] of the same molecule?
A: 18.3

Q: And the MBC [11, 14]?
A: 50 µg/mL (≈ 149 µM)

Q: And the MIC [11, 14]?
A: 0.8 µg/mL (≈ 2.38 µM)

Q: What about the MBC [12, 15] of the same molecule?
A: 200 µg/mL (≈ 596 µM)

Q: What about the MIC [12, 15] of the same molecule?
A: 0.4 µg/mL (≈ 1.19 µM)

Q: And the MBC [13, 16]?
A: 200 µg/mL (≈ 596 µM)

Q: And the MIC [13, 16]?
A: 0.8 µg/mL (≈ 2.38 µM)

Q: With `CN[C@H](CC(C)C)C(=O)N[C@H]1C(=O)N[C@@H](CC(N)=O)C(=O)N[C@H]2C(=O)N[C@H]3C(=O)N[C@H](C(=O)N[C@H](C(=O)O)c4cc(O)cc(O)c4-c4cc3ccc4O)[C@H](O)c3ccc(c(Cl)c3)Oc3cc2cc(c3O[C@@H]2O[C@H](CO)[C@@H](O)[C@H](O)[C@H]2O[C@H]2C[C@](C)(N)[C@H](O)[C@H](C)O2)Oc2ccc(cc2Cl)[C@H]1O` [Vancomycin, vancomycin, reference compound] as the molecule, how does the MBC [11] read?
A: > 400 µg/mL

Q: What about the MIC [11] of the same molecule?
A: 1.6 µg/mL (≈ 1.1 µM)

Q: And the MBC [12]?
A: > 400 µg/mL

Q: What about the MIC [12] of the same molecule?
A: 12.5 µg/mL (≈ 8.63 µM)

Q: What about the MBC [13] of the same molecule?
A: > 400 µg/mL

Q: With `CO[C@H]1/C=C/O[C@@]2(C)Oc3c(C)c(O)c4c(O)c(c(/C=N/N5CCN(C)CC5)c(O)c4c3C2=O)NC(=O)/C(C)=C\C=C\[C@H](C)[C@H](O)[C@@H](C)[C@@H](O)[C@@H](C)[C@H](OC(C)=O)[C@@H]1C` [Rifampicin, rifampicin, reference compound] as the molecule, how does the “MBIC = Minimum Biofilm Inhibitory Concentration” value [11, 14] read?
A: <0.2 µg/mL

Q: What about the MIC [11, 14] of the same molecule?
A: < 0.2 µg/mL

Q: And the MIC [12, 15]?
A: < 0.2 µg/mL

Q: And the MBC [13, 16]?
A: 100 µg/mL (≈ 122 µM)

Q: And the MIC [13, 16]?
A: 0.4 µg/mL (≈ 0.486 µM)

Reference: patent US8552208B2, “Analogs of tetramic acid” (University of Tennesseee Research Foundation, priority 2007, dated 2013)
